For experiment [1], the system named is Candida albicans. The experiment in a line: Antimicrobial activity against Candida albicans assessed as inhibition of fungal growth. The class given is functional.
In experiment [2] the test system is Trichophyton rubrum. The experiment in a line: Antifungal activity against Trichophyton rubrum. The class given is functional.
For experiment [3], the system named is Kluyveromyces marxianus. Description: Antifungal activity against Candida pseudotropicalis. The class given is functional.
In experiment [4] the test system is Nannizzia gypsea. The experiment in a line: Antifungal activity against Microsporum gypseum. It is filed as functional.
For experiment [5], the system named is Candida albicans. Description: Antifungal activity against wild type Candida albicans. It is filed as functional, organism-based.
For experiment [6], the system named is Paradendryphiella salina. Description: Antifungal activity against Dendry-phiella salina. It is filed as functional, organism-based.
The subject of experiment [7] is Lindra thalassiae. The experiment in a line: Antifungal activity against Lindra thalassiae. It is filed as functional, organism-based. The settings on record: Lindriella thalassiae.
The test system of experiment [8] is Candida albicans. The experiment in a line: Antifungal activity against amphotericin-B-resistant Candida albicans. The class given is functional, organism-based.
In experiment [9] the test system is Cladosporium cucumerinum. The experiment in a line: Antifungal activity against Cladosporium cucumerinum assessed as zone of inhibition. It is filed as functional.

Converted amounts (≈) assume the structure as drawn.

As for `C=C(C)CCC[C@]1(C)OC(=O)[C@]23[C@@H](O)C=C4[C@@H](CC[C@H]5C(C)(C)[C@@H](O[C@@H]6OC[C@@H](OS(=O)(=O)[O-])[C@H](O)[C@H]6O[C@@H]6O[C@H](C)[C@@H](O[C@@H]7O[C@H](CO)[C@@H](O)[C@H](O[C@@H]8O[C@H](CO)[C@@H](O)[C@H](OC)[C@H]8O)[C@H]7O)[C@H](O)[C@H]6O)CC[C@]45C)[C@]2(C)CC[C@@]31O.[Na+]`, the MIC in [1], in experiment [2], in experiment [3] and in experiment [4] was 1 µg/mL throughout.

With `CO[C@H]1C[C@H](CC[C@H](C)[C@H](O)[C@H](C)[C@H]2OC(=O)/C=C/C(C)=C/[C@@H](O)[C@H](OC)C[C@@H]3C=CC[C@@H](C[C@@H](OC)[C@@]4(CO4)[C@@H](OC)C[C@@H](OC)[C@@H]2C)O3)O[C@@H](C)C1`, the concentration for half-maximal inhibition (IC50) (as a rule, the concentration at which inhibition is half-maximal) in experiment [5] came out at 1.3 µg/mL (≈ 1.69 µM); in experiment [6], 0.034 µg/mL (≈ 0.0443 µM); in [7], 0.135 µg/mL (≈ 0.176 µM); in experiment [8], 0.5 µg/mL (≈ 0.652 µM).

`CO[C@@H]1[C@@H](O)[C@H](O[C@@H]2[C@@H](O)[C@H](O[C@H]3[C@H](O)[C@@H](O)[C@H](O[C@H]4[C@H](O[C@H]5CC[C@]6(C)C7C[C@H](O)[C@]89C(=O)O[C@@](C)(CCCC(C)C)[C@@]8(O)CC[C@@]9(C)C7=CC[C@H]6C5(C)C)OC[C@@H](OS(=O)(=O)[O-])[C@@H]4O)O[C@@H]3C)O[C@H](COS(=O)(=O)[O-])[C@H]2O)O[C@H](CO)[C@H]1O.[Na+].[Na+]` (some centres undefined): the “inhibition zone (IZ)” value in experiment [9] is 8 mm.

Values taken from ChEMBL document CHEMBL5260795, “Antifungal potential of marine natural products” (Eur J Med Chem, 2017).
